# Data taken from patent US7557085B2, “Metabolic-based methods for modulating gene expression” (Wisconsin Alumni Research Foundation, priority 2005, dated 2009).
# Key:
# [1] = test system: NRSF binding site (NSRE) from the mouse homolog of the human snail promoter; assay: SV40 luciferase reporter with snail promoter NRSE in HEK 293 cells; format: cell-based; settings: HEK 293 cells grown overnight in the presence of glucose
# Description: FIG. 12 is a graph showing repression of expression of a reporter gene using an SV40 promoter with or without the NRSF binding site from the human snail promoter. HG=glucose; Pyr=pyruvate; 2-DG=2-deoxyglucose.
# To investigate whether the effects of 2-DG on gene expression is evidenced in genes known to be involved in metastatic growth, the NRSF binding site (NSRE) from the mouse homolog of the human snail promoter (GenBank Accession No. NM_005985), comprising a 440 bp nucleotide sequence
# identified as SEQ ID NO. 6 was introduced into the SV40 promoter in the plasmid vector pGL3 (available from Promega, Madison, Wis.) at the BglII and Acc65I restriction enzyme recognition sites). In pGL3. a luciferase reporter gene is under the transcriptional control of the SV40 promoter, and in the construct described herein transcription from the SV40 promoter is regulated by NRSE/NRSF. Reporter plasmids with and without the NSRE insert were transfected into HEK 293 cells (ATCC Accession No. CRL 1573 ATCC, Manassas, Va.) and the cells grown overnight in the presence of glucose with and without pyruvate, 2-DG or both pyruvate and 2DG. […]
# [2] = test system: BDNF NRSE; assay: ChIP on hippocampi of rats administered 2-DG or saline, BDNF NRSE; format: in vivo, rat
# Description: FIG. 10D is a graph showing the results of CHiP assays of ˜20 kB surrounding the NRSE element in the BDNF gene. The data is plotted as the quantity of DNA specifically precipitated (pg).
# FIG. 10E is a graph showing the results of CHiP assays wherein chromatin precipitated with anti-H3K9-dimethyl or sham antibody and primers flanking the BDNF NRSE. The data is plotted as the quantity of DNA specifically precipitated (pg).
# FIG. 10F is a graph showing the results of CHiP assays wherein chromatin was precipitated with anti-NRSF or sham antibody and primers flanking the BDNF or actin promoter. The data is plotted as the quantity of DNA specifically precipitated (pg).
# FIG. 10I is a graph of CHIP assays performed on hippocampi from rats administered 2-DG or saline for 2 weeks and using a cocktail of anti-CtBP1 and anti-CtBP2 antibody or sham antibody and primers flanking the BDNF NRSE or actin promoter. Data is plotted as quantity of DNA specifically precipitated in picograms.
# To determine whether 2-DG mediated suppression of BDNF levels was associated with a decreased level of histone H3 Lysine^9 acetylation, hippocampii from 2-DG treated or control rats were crosslinked with 1% formaldehyde and subjected to chromatin immunoprecipitation assays (ChIPs), performed as in Roopra et al.(2004, Mol Cell 14: 727-38) with an antibody specific to acetylated H3-K9. The graphs shown in FIGS. 10A through 10C show the results of experiments in which the amount (in ng) of DNA associated with nucleosomes comprising modified or unmodified H3 histone proteins was detected for an endogenous, NRSE/NRSF-regulated gene (CHRM4) in JTC-19 cells grown in the presence of 2-DG or glucose. […] However, the amount of CtBP recruited to CHRM4, the NRSF target gene, increased 5-fold in the presence of 2-DG.
# ChIP assays also were performed over 20 Kb spanning the BDNF NRSE to detect deacetylated histone H3K9. In these experiments, hippocampi from rats administered 2-DG or saline for 2 weeks were subjected to CHIP with anti-H3K9-acetyl (obtained from BD-Pharmigen) or sham antibody and primers flanking BDNF NRSE or sequence 2, 5 or 10 Kb up- or downstream from the BDNF NRSE element.
# Alternatively, when chromatin from the above experiments was precipitated with anti-NRSF or sham antibody and primers flanking the BDNF NRSE or actin promoter, specific binding was found at the NSRE element and not associated with the actin promoter.
# The above results predicted that CtBP would be present at the BDNF NRSF binding site in rat hippocampi and that occupancy at this site should be augmented in the presence of 2-DG. To test this prediction, ChIP assays were performed using anti-CtBP antibody on chromatin isolated from 2DG-treated rats as above. Hippocampi from rats administered 2-DG or saline for 2 weeks were subjected to ChIP with a cocktail of anti-CtBP1 and anti-CtBP2 antibody or sham antibody and primers flanking the BDNF NRSE or actin promoter. […] CtBP was not detected at the actin promoter without regard to the glycolytic state of the animal, as expected for a gene not under NRSF regulatory control.
# [3] = test system: CHRM4; assay: QRT-PCR of CHRM4 in CtBP1/CtBP2 mutant Mouse Embryonic Fibroblasts; format: cell-based; settings: 1 mM 2-DG
# Experimental: FIG. 7C is a graph of normalized CHRM4 expression in MEFs bearing an inactivating mutation in heterozygous (−/+) or homozygous (−/−) state for both CtBP1 and CtBP2, assayed in the presence of absence of 2-DG.
# To test whether CtBP was required for NRSF repression of chromosomal genes, expression levels of NRSF target genes were assayed in Mouse Embryonic Fibroblasts (MEFs) heterozygous or homozygous for deletions of both CtBP1 and CtBP2 (as described in Hildebrand & Soriano, 2002, Mol Cell Biol 22: 5296-307). In these experiments, wild type MEFs or MEFs heterozygous (CtBP1^−/+2^−/+) or homozygous (CtBP1^−/−2^−/−) for both CtBP1 and CtBP2 mutants were analyzed for CHRM4, Myelin Basic Protein (MBP) and hypoxanthine phosphoribosyl transferase (HPRT, as a non-NRSF regulated control) expression by QRT-PCR as described in Example 2. […] The expression levels of both genes were further elevated in CtBP1^−/−/2^−/− cells, consistent with a dose-responsive co-repressor function for CtBP.
structure (smiles),measurement,setting,value
"O=CC[C@@H](O)[C@H](O)[C@H](O)CO [2-DG, 2-deoxy-D-glucose]",reporter gene expression (ratio of SV40-driven to NRSE/SV40 luciferase expression),[1],decreased
same,H3K9 methylation status at the BDNF NRSE,"[2]; anti-H3K9-dimethyl antibody, rat hippocampi",robust increase
same,NRSF binding to the BDNF NRSE,"[2]; anti-NRSF antibody, rat hippocampi",not affected
same,associated histone acetylation levels for BDNF DNA,"[2]; drug treatment, rat hippocampus",lowered
same,CtBP occupancy at the BDNF NRSE,"[2]; rats administered 2-DG or saline for 2 weeks, anti-CtBP1 and anti-CtBP2 cocktail",significantly increased
same,H3K9 acetylation at the NRSE element compared to controls,"[2]; rats administered 2-DG or saline for 2 weeks, only amplicon over 20 Kb to change",marked reduction
same,CHRM4 expression,[3]; CtBP1-/+/2-/+ cells,repressed
same,CHRM4 expression,[3]; CtBP1-/-/2-/- cells,not altered
